Laboratory results taken from ChEMBL document CHEMBL4152259, “Benzoxazinone-containing 3,5-dimethylisoxazole derivatives as BET bromodomain inhibitors for treatment of castration-resistant prostate cancer” (Eur J Med Chem, 2018).

Legend:
[1] = target: T1, Bromodomain-containing protein 4 (Homo sapiens, UniProt O60885); assay: Inhibition of His6-tagged human BRD4 bromodomain-1 (N44 to E168 residues) expressed in Escherichia coli BL21(DE3) using biotinylated-H4KAc4 as substrate by AlphaScreen assay
[2] = target: T1, Bromodomain-containing protein 4
Description: Binding affinity to His6-tagged human BRD4 bromodomain-1 (N44 to E168 residues) expressed in Escherichia coli BL21(DE3) assessed as change in melting temperature at 200 uM by SYPRO orange dye based fluorescence assay

LNCaP [3] = assay: Antiproliferative activity against human LNCAP cells treated at 12 hrs post cell seeding measured at 72 to 144 hrs post cell seeding by Cell-Titer Glo assay; format: functional, cell-based
LNCaP C4-2B = assay: Antiproliferative activity against human C4-2B cells treated at 12 hrs post cell seeding measured at 72 to 144 hrs post cell seeding by Cell-Titer Glo assay; format: functional, cell-based
CWR22R = assay: Antiproliferative activity against human 22Rv1 cells treated at 12 hrs post cell seeding measured at 72 to 144 hrs post cell seeding by Cell-Titer Glo assay; format: functional, cell-based
VCaP = assay: Antiproliferative activity against human VCaP cells treated at 12 hrs post cell seeding measured at 72 to 144 hrs post cell seeding by Cell-Titer Glo assay; format: functional, cell-based
LNCaP [4] = assay: Antiproliferative activity against human LNCAP cells; format: functional, cell-based

IC50 [1]	ΔTm [2]	SMILES	further results
0.29 µM	8.1 °C	CCCC1Oc2cc(-c3c(C)noc3C)ccc2NC1=O (stereo not given)	
0.86 µM	8.4 °C	Cc1noc(C)c1-c1ccc2c(c1)O[C@H](CC1CC1)C(=O)N2CCN(C)C	
0.2 µM	7.8 °C	CCCCC1Oc2cc(-c3c(C)noc3C)ccc2NC1=O (stereo not given)	IC50 (LNCaP [3]): 0.82 µM; IC50 (LNCaP C4-2B): 0.59 µM; IC50 (CWR22R): 4.52 µM; IC50 (VCaP): 1.14 µM
0.53 µM	6.9 °C	CSCCC1Oc2cc(-c3c(C)noc3C)ccc2NC1=O (stereo not given)	
> 20 µM	3 °C	Cc1noc(C)c1-c1ccc2c(c1)OC(Cc1ccccc1)C(=O)N2 (stereo not given)	
2.12 µM	6.9 °C	Cc1noc(C)c1-c1ccc2c(c1)O[C@H](CC1CC1)C(=O)N2CC(=O)O	
0.2 µM	8.1 °C	Cc1noc(C)c1-c1ccc2c(c1)OC(CC1CCC1)C(=O)N2 (stereo not given)	
0.88 µM	5.4 °C	Cc1noc(C)c1-c1ccc2c(c1)OC(c1ccc(Cl)cc1)C(=O)N2 (stereo not given)	
0.4 µM	8.7 °C	Cc1noc(C)c1-c1ccc2c(c1)OC(CC1CC1)C(=O)N2 (stereo not given)	IC50 (LNCaP [3]): 1.03 µM; IC50 (LNCaP C4-2B): 0.59 µM; IC50 (CWR22R): 1.94 µM; IC50 (VCaP): 0.41 µM
0.29 µM	7.8 °C	Cc1noc(C)c1-c1ccc2c(c1)OC(CC1CCCC1)C(=O)N2 (stereo not given)	
1.14 µM	5.4 °C	Cc1noc(C)c1-c1ccc2c(c1)OC(c1ccccc1C(F)(F)F)C(=O)N2 (stereo not given)	
		CNC(=O)c1ccc(N2C(=S)N(c3ccc(C#N)c(C(F)(F)F)c3)C(=O)C2(C)C)cc1F [ENZALUTAMIDE]	IC50 (LNCaP C4-2B): 20.8 µM; IC50 (VCaP): > 30 µM
0.62 µM	7.5 °C	Cc1noc(C)c1-c1ccc2c(c1)OC(c1cccc(F)c1)C(=O)N2 (stereo not given)	
4.25 µM	5.7 °C	Cc1noc(C)c1-c1ccc2c(c1)OC(c1ccc(Cl)c(Cl)c1)C(=O)N2 (stereo not given)	
1.17 µM	6.9 °C	Cc1noc(C)c1-c1ccc2c(c1)OC(C(C)C)C(=O)N2 (stereo not given)	
2.27 µM	3.3 °C	Cc1noc(C)c1-c1ccc2c(c1)OC(c1cccc(C(F)(F)F)c1)C(=O)N2 (stereo not given)	
		Cc1sc2c(c1C)C(c1ccc(Cl)cc1)=N[C@@H](CC(=O)Nc1ccc(O)cc1)c1nnc(C)n1-2 [BIRABRESIB]	IC50 (LNCaP [4]): 0.111 µM
0.52 µM	7.7 °C	Cc1noc(C)c1-c1ccc2c(c1)O[C@H](CC1CC1)C(=O)N2C	
0.27 µM	7.9 °C	Cc1noc(C)c1-c1ccc2c(c1)OC(C(C)(C)C)C(=O)N2 (stereo not given)	
0.51 µM	4.8 °C	Cc1noc(C)c1-c1ccc2c(c1)OC(c1cccc(Cl)c1)C(=O)N2 (stereo not given)	
> 20 µM	2.1 °C	Cc1noc(C)c1-c1ccc2c(c1)OC(Cc1ccc(Cl)cc1)C(=O)N2 (stereo not given)	
3.64 µM	6.9 °C	Cc1noc(C)c1-c1ccc2c(c1)O[C@H](CC1CC1)C(=O)N2CC(=O)N(C)C	
1.17 µM	6.9 °C	Cc1noc(C)c1-c1ccc2c(c1)OC(CC1CCCCC1)C(=O)N2 (stereo not given)	
0.49 µM	5.1 °C	Cc1noc(C)c1-c1ccc2c(c1)OC(c1ccccc1Cl)C(=O)N2 (stereo not given)	
0.36 µM	8.9 °C	COC(=O)CN1C(=O)[C@@H](CC2CC2)Oc2cc(-c3c(C)noc3C)ccc21	
1.33 µM	6.3 °C	Cc1noc(C)c1-c1ccc2c(c1)OC(c1cc(Cl)cc(Cl)c1)C(=O)N2 (stereo not given)	
3.54 µM	3.9 °C	Cc1noc(C)c1-c1ccc2c(c1)O[C@@H](CC1CC1)C(=O)N2	
6.07 µM	3.2 °C	Cc1noc(C)c1-c1ccc2c(c1)O[C@H](Cc1ccccc1)C(=O)N2	
		CCNC(=O)C[C@@H]1N=C(c2ccc(Cl)cc2)c2cc(OC)ccc2-n2c(C)nnc21 [MOLIBRESIB]	IC50 (LNCaP [4]): 0.356 µM
0.18 µM	9.4 °C	Cc1noc(C)c1-c1ccc2c(c1)OC(CC(C)C)C(=O)N2 (stereo not given)	IC50 (LNCaP [3]): 0.57 µM; IC50 (LNCaP C4-2B): 0.54 µM; IC50 (CWR22R): 6.5 µM; IC50 (VCaP): 0.38 µM
